From ChEMBL document CHEMBL4425167, “Screening Identifies Thimerosal as a Selective Inhibitor of Endoplasmic Reticulum Aminopeptidase 1” (ACS Med Chem Lett, 2016)
Calls of active or inactive are those of the source. The calls are words filed in the database; no cut-off is given here.

Key:
[1] = tested on: BMDC; experiment: Inhibition of ovalbumin cross presentation to OT-I Rag1-/-mouse CD8+ T cells in C57Bl/6 JRj mouse ERAP+/+ BMDC assessed as increase in IL-2 secretion from CD8+ T cells at 0.01 to 10 uM preincubated for 90 mins followed by 3 to 18 hrs incubation in presence of ovalbumin by sandwich ELISA method; assay type: functional, cell-based
[2] = tested on: BMDC; experiment: Inhibition of ovalbumin cross presentation to OT-I Rag1-/-mouse CD8+ T cells in C57Bl/6 JRj mouse ERAP-/- BMDC assessed as increase in IL-2 secretion from CD8+ T cells at 0.01 to 10 uM preincubated for 90 mins followed by 3 to 18 hrs incubation in presence of ovalbumin by sandwich ELISA method; assay type: functional, cell-based
[3] = target: T1, Endoplasmic reticulum aminopeptidase 1 (Homo sapiens, UniProt Q9NZ08); experiment: Inhibition of recombinant ERAP1 (unknown origin) expressed in baculovirus infected Hi5 cells using L-leucine 7-amido-4-methyl coumarin as substrate up to 30 uM by fluorescence microplate reader method
T1 sequence (Q9NZ08 whole entry): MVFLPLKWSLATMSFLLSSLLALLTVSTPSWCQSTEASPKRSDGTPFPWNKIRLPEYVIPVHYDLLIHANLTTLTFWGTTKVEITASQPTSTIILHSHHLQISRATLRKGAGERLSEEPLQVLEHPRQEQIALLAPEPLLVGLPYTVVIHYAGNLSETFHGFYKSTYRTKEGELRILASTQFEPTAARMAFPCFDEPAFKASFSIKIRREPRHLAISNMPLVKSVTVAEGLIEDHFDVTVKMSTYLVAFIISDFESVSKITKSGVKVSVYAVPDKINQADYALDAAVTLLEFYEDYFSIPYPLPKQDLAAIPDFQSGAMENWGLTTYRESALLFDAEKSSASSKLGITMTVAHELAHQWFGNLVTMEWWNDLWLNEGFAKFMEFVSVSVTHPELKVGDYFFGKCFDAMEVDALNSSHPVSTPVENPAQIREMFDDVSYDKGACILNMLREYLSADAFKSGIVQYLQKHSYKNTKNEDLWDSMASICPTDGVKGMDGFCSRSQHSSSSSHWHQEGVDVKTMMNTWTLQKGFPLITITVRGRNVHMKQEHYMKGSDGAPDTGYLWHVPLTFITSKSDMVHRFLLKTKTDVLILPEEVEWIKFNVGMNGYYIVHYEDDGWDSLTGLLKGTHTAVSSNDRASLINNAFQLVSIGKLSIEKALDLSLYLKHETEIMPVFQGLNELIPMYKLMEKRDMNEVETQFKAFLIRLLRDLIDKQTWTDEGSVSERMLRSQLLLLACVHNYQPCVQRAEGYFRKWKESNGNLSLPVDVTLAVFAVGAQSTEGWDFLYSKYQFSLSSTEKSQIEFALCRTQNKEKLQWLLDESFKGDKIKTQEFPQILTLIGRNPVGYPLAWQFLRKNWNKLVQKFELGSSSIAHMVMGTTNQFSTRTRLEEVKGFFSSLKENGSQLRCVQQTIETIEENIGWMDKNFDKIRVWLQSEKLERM

[4] = target: T1, Endoplasmic reticulum aminopeptidase 1; experiment: Inhibition of human ERAP1 expressed in African green monkey COS7 cells using aminoacyl-4-methylcoumaryl-7-amide as substrate after 15 mins by spectrofluorophotometric method

Row | SMILES | inhibition [1] | inhibition [2] | inhibition [3] | IC50 [4] [µM]
1 | O=C(O)c1ccccc1S | inactive | inactive | inactive | 
2 | CC(C)C[C@H](NC(=O)[C@@H](O)[C@H](N)Cc1ccccc1)C(=O)O [UBENIMEX] |  |  |  | 50 to 100
